From PubChem BioAssay AID2610 (Broad Institute, 2010)
Results filed as inconclusive are left out. Activity calls are given as the source filed them.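 Rule for the calls: active = EC50 no more than tenfold above the top concentration tested, with valid fit and all samples agreeing; inconclusive = flat fit at 30 to 70% inhibition, poor fit, or split samples; inactive = EC50 beyond tenfold the top concentration tested.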

Tested on: BJeLR fibroblast viability, Alamar Blue fluorescence, 48 h
Experiment: cytotoxicity toward RAS-transformed BJeLR fibroblasts, dose response, cell-based, alamar blue fluorescence, 48 h, cherrypicked samples (AID 2610);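 note: BJ fibroblasts with hTERT plus SV40 large and small T and HRAS V12; EC50 for loss of viable cells so potency reflects cytotoxic compounds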

Structure (SMILES) | EC50
O=S(=O)(c1ccc2c(c1)C(=NO)c1cc(S(=O)(=O)N3CCCCC3)ccc1-2)N1CCCCC1 | < 277 nM
O=C(CSc1ccccn1)NCc1ccc2c(c1)OCO2 | > 13300 nM (inactive)
CCOCCOC(=O)c1[nH]c2c(c1C)C(=O)CC(c1ccccc1)C2 (stereo not drawn) | 262 nM
COc1ccc(/C=C/c2cc(-c3ccc(C)cc3)o[n+]2C)cc1 | 654 nM
C/C(=N\NC(=O)c1ccc(F)cc1)c1ccccn1 | 491 nM
CN(Cc1cnc2nc(N)nc(N)c2n1)c1ccc(C(=O)N[C@@H](CCC(=O)O)C(=O)O)cc1 | > 13300 nM (inactive)
CC(Oc1ccc(Cl)cc1Cl)c1nc(-c2ccc(NC(=O)c3cccnc3)cc2)no1 (stereo not drawn) | 1580 nM
O=C(Cc1ccc([N+](=O)[O-])cc1)N/N=C/c1ccc([N+](=O)[O-])o1 | 3540 nM
Cc1cc2nc(/C=C/c3cccnc3)[nH]c2cc1C | < 104 nM
CCOc1ccc(CC(=O)Nc2ccc(NC(=O)c3ccco3)cc2)cc1OCC | 2060 nM
Cc1cc(C)cc(NS(=O)(=O)c2ccc(-c3cnc(C4CC4)o3)cc2)c1 | < 104 nM
C[C@@H]1C=CC(=O)O[C@@H]1c1ccc(C(F)(F)F)cc1 | 1970 nM
O=C(/C=C/c1ccc([N+](=O)[O-])o1)NNC(=O)c1ccc(F)cc1 | 2660 nM
CCN(CC)c1ccc(/C=N/NC(=O)c2ccc3nc[nH]c3c2)c(O)c1 | 1530 nM
Nc1ccc2c(c1)C(=O)C(=O)c1ccccc1-2 | 1720 nM
Cc1ccc(C)c(NS(=O)(=O)c2ccc(-c3cnc(C4CC4)o3)cc2)c1 | < 104 nM
CCc1nc(N)nc(N)c1-c1ccc(Cl)cc1 | > 13300 nM (inactive)
C[C@@H]1C[C@H]2OC(=O)C3(CO3)[C@H]2[C@H](O)[C@]2(C)C(=O)C3OC3[C@@H]12 (stereo partly drawn) | 2830 nM
O=C(N/N=C(\c1ccccc1)c1cccnc1)c1cccc(F)c1 | 697 nM
CCSc1cc(C2C(C#N)=C(N)Oc3n[nH]c(C)c32)c(C)o1 (stereo not drawn) | 11500 nM
C/C(=N\Nc1ncc(Cl)cc1Cl)c1ccccn1 | < 22.2 nM
COc1ccc(N/N=C(/N=Nc2nc(C)cc(=O)[nH]2)c2ccccc2)cc1 | 446 nM

Structure (SMILES) | EC50
COc1cc(NC(=O)c2cccs2)c(OC)cc1NC(=O)CCC(=O)Nc1ccc2ncccc2c1 | > 13300 nM (inactive)
COc1ccc2nc(NC(=O)c3ccoc3C)sc2c1 | > 13300 nM (inactive)
CC1C/C(=C/c2ccncc2)C(=O)/C(=C/c2ccncc2)C1 (stereo not drawn) | 400 nM
CCCCCCCCCCCCn1ccc(=N)cc1 | 522 nM
CCN(CC)CCN1C(=O)/C(=C\c2ccc(Cl)c([N+](=O)[O-])c2)SC1=Nc1ccc(OC)cc1 | 563 nM
CC(=O)c1ccccc1OCCOCCOCCOc1ccccc1C(C)=O | > 13300 nM (inactive)
C[C@@H]1C=CC(=O)O[C@@H]1c1ccc(Cl)cc1 | 4190 nM
Cc1ccc(/C=N/NC(=O)c2cc(-c3ccncc3)nc3ccccc23)o1 | 685 nM
Cn1ncc2c(O/N=C(\N)c3ccc(C(C)(C)C)cc3)ncnc21 | 2340 nM
COc1ccc(NC(=O)C(=O)NCC2CCCN2S(=O)(=O)c2ccc(C)cc2)cc1 (stereo not drawn) | < 104 nM
Oc1ccccc1N=Nc1nc(-c2ccccc2)c(-c2ccccc2)[nH]1 | 176 nM
C(=N\Nc1nncc2ccccc12)/c1ccccn1 | 3340 nM
CCc1ccc(CCC(=O)Nc2ncc(Cc3ccccc3Cl)s2)o1 | 1060 nM
O=C(NC(Nc1nc2ccc([N+](=O)[O-])cc2s1)(C(F)(F)F)C(F)(F)F)c1ccccc1Cl | 427 nM
CC[C@@]1(O)C(=O)OCc2c1cc1n(c2=O)Cc2cc3ccccc3nc2-1 | < 30.4 nM
CCCCc1c(C)c(C#N)c2nc3ccccc3n2c1Cl | 587 nM
Cc1ccc(-c2nnc(SCC(=O)Nc3ccccc3F)o2)cc1 | > 13300 nM (inactive)
Cc1ccc2[nH]c3c(c2c1)CCCC3NC(=O)CCl (stereo not drawn) | 2270 nM
COc1cccc(C(=O)Nc2ccc(N3CCCC3)cc2)c1 | 1970 nM
COc1cc(/C=C/[N+](=O)[O-])ccc1O | 6500 nM
O=C(/C=C\c1ccco1)Nc1cc([N+](=O)[O-])ccc1F | 256 nM
COc1ccc2[nH]c(=O)c(CN(Cc3cccs3)S(=O)(=O)c3cccc4nsnc34)cc2c1 | 1460 nM

Structure (SMILES) | EC50
O=C(N/N=C/c1cc2c3c(c1O)CCCN3CCC2)c1ccccc1O | 755 nM
CCOC(=O)c1[nH]c(C)c(C(=O)N2CCc3ccccc32)c1C | < 104 nM
O=C(NCc1cccnc1)c1ccc(NC(=O)c2ccc([N+](=O)[O-])cc2)cc1 | 1420 nM
CCN1CCN(CCNC(=O)c2ccc(/C=C3/Sc4ccccc4N(Cc4ccccc4C)C3=O)cc2)CC1 | > 13300 nM (inactive)
N#CCc1ccc(NC(=O)/C=C/c2ccc([N+](=O)[O-])o2)cc1 | 1100 nM
CCn1c(C)nc2cc(-c3nc4n(n3)Cc3ccccc3-4)ccc21 | > 13300 nM (inactive)
CCN(CC)c1ccc(/C=N/NC(=O)c2nnn(-c3nonc3N)c2C(C)C)c(O)c1 | 565 nM
COc1ccccc1C1C2=C(COC2=O)Nc2cc3c(cc21)OCO3 (stereo not drawn) | < 104 nM
COc1cc(/C=C/c2ccc3cccc(O)c3n2)cc(OC)c1OC | 3370 nM
COc1cc([C@H]2c3[nH]c4ccccc4c3C[C@H]3C(=O)N4[C@@H](c5cc(OC)c(OC)c(OC)c5)c5[nH]c6ccccc6c5C[C@H]4C(=O)N23)cc(OC)c1OC | > 13300 nM (inactive)
COc1ccc(/C=N\NC(=O)c2cccc(F)c2)cc1COc1ccccc1 | < 104 nM
CN(C)CCNC(=O)c1cc2c(s1)-c1ccc(Cl)cc1SC2 | 1120 nM
COc1cccc(/C=C2\SC(=S)N(CCCC(=O)N(CCO)c3ccccc3)C2=O)c1 | 2530 nM
CC(C)(C)c1ccc(-n2nc(C#N)c(Cl)cc2=O)cc1 | 963 nM
Nc1nc(CCl)nc(Nc2ccc3ccccc3c2)n1 | 192 nM
O=C(c1ccc2c3n(nc2c1)-c1ccccc1CO3)N1CCCCC1 | > 13300 nM (inactive)
C/C(=N\Nc1ccc2nncn2n1)c1ccccn1 | 1140 nM
Oc1c(N=Nc2ccccn2)ccc2ccccc12 | 241 nM
Cc1ccc(/C=N/NC(=O)c2n[nH]c3c2CCCC3)cc1 | < 104 nM
O=[N+]([O-])c1cc(Br)c(Nc2ccccc2)c([N+](=O)[O-])c1 | 537 nM
COc1cccc(N2CCN(C(=O)c3ccc(CS(=O)c4ccc(C)cc4)o3)CC2)c1 (stereo not drawn) | 165 nM
CN1C/C(=C/c2ccncc2)C(=O)/C(=C/c2ccncc2)C1 | 555 nM

Structure (SMILES) | EC50
COc1ccccc1N1CCN(C(=O)c2cc(=O)c3cc(C)cc(C)c3o2)CC1 | < 104 nM
Cc1nn(-c2ccccc2)c(Cl)c1CN(C(=O)CCl)c1ccc(Cl)cc1 | 521 nM
CC1CC(C)CN(S(=O)(=O)c2ccc(C(=O)NCCCn3ccnc3)cc2)C1 (stereo not drawn) | 150 nM
C/C(=N\Nc1nc2ccccc2[nH]1)c1ccccn1 | 165 nM
COc1ccccc1-c1nnc2sc(-c3ccc(N(C)C)cc3)nn12 | < 104 nM
COc1cc(OC)cc(C(=O)N[C@H](C(=O)Nc2nc3ccccc3[nH]2)C(C)C)c1 | 324 nM
CC[C@@]1(O)C(=O)OCc2c1cc1n(c2=O)Cc2cc3c(NC(=O)CN)cccc3nc2-1 | 292 nM
O=C(Sc1cccc2cccnc12)c1ccccc1Br | 337 nM
CCCC(=O)Nc1ccc(C(=O)N/N=C/c2ccc([N+](=O)[O-])o2)cc1 | < 48.8 nM
Cc1c(C(=O)OCC(=O)N2CC(=O)Nc3ccccc32)oc2ccc(Br)cc12 | > 13300 nM (inactive)
Cc1ccc(C(=O)c2cc([N+](=O)[O-])ccc2N2CCCCC2)c(C)c1 | < 104 nM
COc1ccc(/C=C2\CN(Cc3ccccc3)C/C(=C\c3ccc(OC)c(O)c3)C2=O)cc1O | 559 nM
COc1cc(C2c3cc4c(cc3C(OC3OC5COC(c6cccs6)OC5C(O)C3O)C3COC(=O)C23)OCO4)cc(OC)c1O (stereo not drawn) | 129 nM
CC(=O)Nc1ccc(NC(=O)CN(c2cccc([N+](=O)[O-])c2)S(C)(=O)=O)cc1 | 1410 nM
COc1cc(OC)c(C2=NOC(C(=O)NCc3cccs3)C2)cc1Cl (stereo not drawn) | 2320 nM
CCOc1ccc(N=Cc2c(C)[nH]n(-c3nc4ccccc4[nH]3)c2=O)cc1 | > 13300 nM (inactive)
COc1ccc(NC(=O)CN(C)S(=O)(=O)c2ccc3[nH]c(=O)oc3c2)cc1 | > 13300 nM (inactive)
O=C(CCl)N=c1sccn1Cc1ccccc1Cl | < 88.2 nM
COc1ccc(N=C2S/C(=C\c3ccc(Cl)c([N+](=O)[O-])c3)C(=O)N2CCN(C)C)cc1 | 1370 nM
O=C(c1ccc2c3n(nc2c1)-c1ccccc1CO3)N1CCOCC1 | > 13300 nM (inactive)
O=[N+]([O-])c1ccc(N=Nc2ncc[nH]2)cc1 | 2370 nM
COc1ccc(C(=O)Nc2nc3ccccc3s2)c(OC)c1 | > 13300 nM (inactive)

Structure (SMILES) | EC50
O=S(=O)(c1ccc(Cl)cc1)c1snnc1-c1ccccc1 | 594 nM
COc1ccc(C2=CC(=O)C=CC2=O)cc1 | > 13300 nM (inactive)
Cc1sc2cc3c(c(C(=O)c4ccccc4)[n+]2c1C)-c1cccc2cccc-3c12 | 10500 nM
O=Cc1cc2ccccc2nc1SCc1ccc(Cl)cc1 | < 104 nM
c1cnc2c(c1)ccc1cccnc12 | 5560 nM
CC(C)c1cc(C(=O)N/N=C/C(Br)=C/c2ccccc2)n[nH]1 | 958 nM
COC(=O)C1CN(C#N)N(c2ccc(Cl)cc2)C12c1ccccc1-c1ccccc12 (stereo not drawn) | 567 nM
O=C(c1cc([N+](=O)[O-])ccc1N1CCOCC1)N1CCN(c2ccccc2)CC1 | < 104 nM
COc1ccc(F)cc1CN1CCN(C(=O)CCC(=O)Nc2nnc(CC(C)C)s2)CC1 | > 13300 nM (inactive)
Cc1ccc(C(=O)Sc2cccccc2=O)cc1 | < 62.4 nM
COCc1c(C(C)C)nc(C(C)C)c(/C=C/[C@@H](O)C[C@@H](O)CC(=O)O)c1-c1ccc(F)cc1 | < 104 nM
CCOc1ccc2nc(NC(=O)c3ccoc3C)sc2c1 | > 13300 nM (inactive)
Cc1nc(N)nc(N)c1CCCc1ccc(Cl)c(Cl)c1 | > 13300 nM (inactive)
Cc1cccc(C)c1NS(=O)(=O)c1ccc(-c2cnc(C3CC3)o2)cc1 | < 104 nM
CCOc1ccccc1C(=O)N1CCN(c2cccc(Cl)c2)CC1 | < 104 nM
O=C1/C(=C/c2ccncc2)CCC/C1=C\c1ccncc1 | 539 nM
Oc1ccc(/C=N/Nc2nccnc2Cl)c(O)c1 | 6750 nM
O=C(/C=C/c1ccc(F)cc1)NNC(=O)CCN1CCN(Cc2ccccc2)CC1 | > 13300 nM (inactive)
Nc1ncnc2c1ccn2[C@@H]1O[C@H](CO)[C@@H](O)[C@H]1O | < 104 nM
Cc1ccc(C2=NN(C(=O)CCl)C(c3ccco3)C2)o1 (stereo not drawn) | 1600 nM
